Patent publication US6525059B1, “Substituted pyrazoles as p38 kinase inhibitors” (G. D. Searle & Company, priority 1998, dated 2003)
“And” between values parts separate entries of the source, which are not always exact repeats. Equal entries are not always repeated. Structures can show the parent of a compound that is named as a salt. Where two headings read alike, the source gives them in different places. One block for each compound: values may come before it.

Experiments:
[1] = target: T1, human GST-p38 kinase alpha (Homo sapiens, UniProt Q16539); assay: p38 kinase in vitro assay, second format, phosphorylation of EGFRP with 33P-ATP; format: biochemical
T1 construct: The coding region of the human p38a cDNA was obtained by PCR-amplification from RNA isolated from the human monocyte cell line THP.1; made in house; host or cells: E. coli DH10B
T1 sequence (Q16539 whole entry): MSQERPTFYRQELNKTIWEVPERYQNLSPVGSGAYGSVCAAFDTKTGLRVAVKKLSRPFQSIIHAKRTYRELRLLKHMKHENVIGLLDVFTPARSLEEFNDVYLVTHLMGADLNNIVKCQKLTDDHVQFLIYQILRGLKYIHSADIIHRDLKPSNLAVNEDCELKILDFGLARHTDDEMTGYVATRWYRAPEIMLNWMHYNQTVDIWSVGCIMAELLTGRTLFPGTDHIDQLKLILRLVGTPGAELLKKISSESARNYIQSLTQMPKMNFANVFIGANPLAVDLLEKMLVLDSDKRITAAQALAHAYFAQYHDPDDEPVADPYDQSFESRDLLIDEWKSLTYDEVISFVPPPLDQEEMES
Procedure: A second assay format was also employed that is based on p38 kinase alpha induced phosphorylation of EGFRP (epidermal growth factor receptor peptide, a 21 mer) in the presence of ^33P-ATP. Compounds were tested in 10 fold serial dilutions over the range of 100 μM to 0.001 μM in 10% DMSO. Each concentration of inhibitor was tested in triplicate. Compounds were evaluated in 50 μl reaction volumes in the presence of 25 mM Hepes pH 7.5, 10 mM magnesium acetate, 4% glycerol, 0.4% bovine serum albumin, 0.4 mM DTT, 50 μM unlabeled ATP, 25 μg EGFRP (200 μM), and 0.05 uCi gamma ^33P-ATP. Reactions were initiated by addition of 0.09 μg of activated, purified human GST-p38 kinase alpha. Activation was carried out using GST-MKK6 (5:1, p38: MKK6) for one hour at 30° C. in the presence of 50 μM ATP. Following incubation for 60 minutes at room temperature, the reaction was stopped by addition of 150 μl of AG 1×8 resin in 900 mM sodium formate buffer, pH 3.0 (1 volume resin to 2 volumes buffer). The mixture was mixed three times with pipetting and the resin was allowed to settle. A total of 50 μl of clarified solution head volume was transferred from the reaction wells to Microlite-2 plates. 150 μl of Microscint 40 was then added to each well of the Microlite plate, and the plate was sealed, mixed, and counted.

[2] = system: TNF-α; assay: Rat assay: LPS-challenged rats, serum TNF-α by ELISA; format: in vivo; settings: Rattus norvegicus, po
Procedure: The efficacy of the novel compounds in blocking the production of TNF also was evaluated using a model based on rats challenged with LPS. Male Harlen Lewis rats [Sprague Dawley Co.] were used in this model. Each rat weighed approximately 300 g and was fasted overnight prior to testing. Compounds administration was typically by oral gavage (although intraperitoneal, subcutaneous and intravenous administration were also used in a few instances) 1 to 24 hours prior to the LPS challenge. Rats were administered 30 μg/kg LPS [salmonella typhosa, Sigma Co.] intravenously via the tail vein. Blood was collected via heart puncture 1 hour after the LPS challenge. Serum samples were stored at −20° C. until quantitative analysis of TNF-α by Enzyme Linked-Immuno-Sorbent Assay (“ELISA”) [Biosource]. Additional details of the assay are set forth in Perretti, M., et al., Br. J. Pharmacol. (1993), 110, 868-874, which is incorporated by reference in this application.
In vivo assessment of the ability of the compounds to inhibit LPS-stimulated TNF release in the rat is shown in the column identified as:
wherein in the dose is milligram per kilogram (mpk) administered by oral gavage and the predose time indicates the number of hours before LPS challenge when the compound is administered.

[3] = target: T2, human p38 kinase alpha (Homo sapiens, UniProt Q16539); assay: p38 kinase in vitro assay, phosphorylation of biotinylated PHAS-I with gamma 32P-ATP; format: biochemical; settings: read-out: P38 alpha kinase IC50
T2 construct: The coding region of the human p38a cDNA was obtained by PCR-amplification from RNA isolated from the human monocyte cell line THP.1; GST (N); made in house; host or cells: E. coli DH10B
T2 sequence (Q16539 whole entry): as above
Summary of the method: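 MKK6-activated human p38α phosphorylates biotinylated PHAS-I with γ-32P-ATP in 25 mM HEPES pH 7.5, 10 mM Mg acetate, 50 μM unlabeled ATP, 1% DMSO, 30 °C for 1 h or overnight. Compounds at 100–0.001 μM (10-fold steps, triplicate); substrate captured on streptavidin filter plates and counted by scintillation.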

[4] = system: TNF-α; assay: LPS stimulation of TNF production by U937 cells; format: cell-based, human; settings: Homo sapiens; for IC50: U-937, TNF production, LPS-stimulated human U937 cells, read-out: U937 Cell IC50
Summary of the method: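 PMA-differentiated human U937 cells (20 ng/ml PMA, 24 h, then 24-48 h rest) at 2 million cells/ml, 0.1% DMSO final, stimulated with E. coli LPS (100 ng/ml final) for 4 h at 37° C. TNF-α in medium measured by ELISA; IC50 in μM.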

[5] = Table 8, 10% DMSO, read-out: p38α Kinase Assay IC50
[6] = Table 10, 10% DMSO, @ 1.0 hour, read-out: p38α Kinase Assay IC50
[7] = p38α in vitro, EGFRP assay procedure, read-out: p38^2 IC50
[8] = -4 h, 3 mpk oral gavage, -4h before LPS, read-out: Rat LPS Model % inhib @ dose @ predose time

IC50 [1, 5]: 370 nM
Structure (SMILES): O=C(c1n[nH]c(-c2ccc(F)cc2)c1-c1ccncc1)N1CCNCC1 [A-314, Step 1, 1-[[5-(4-fluorophenyl)-4-(4-pyridinyl)-1H-pyrazol-3-yl]carbonyl]piperazine, monhydrate]

Structure (SMILES): O=C(O)CCC(=O)N1CCN(c2n[nH]c(-c3ccc(Cl)cc3)c2-c2ccncc2)CC1 [A-321 (monosodium salt dihydrate), 4-[5-(4-chlorophenyl)-4-(4-pyridinyl)-1H-pyrazol-3-yl]-γ-oxo-1-piperazinebutanoic acid, monosodium salt dihydrate]
inhibition in vivo at 3 mg/kg ([2]; read-out: Rat LPS Assay % Inhibition): 14%

IC50 [1, 6]: 1720 nM
Structure (SMILES): Cc1cccc(C(=O)Cc2ccncc2)c1 [A-389, Step 1, 1-tolyl-2-(4-pyridyl)ethanone]

Structure (SMILES): Clc1ccc(-c2n[nH]c(SC3CCNCC3)c2-c2ccncc2)cc1 [A-459 (salt)]
IC50 [1, 6]: 100 nM

IC50 [1, 7]: 104 nM
Structure (SMILES): Cc1cccc(-c2nn(C)cc2-c2ccnc(C)c2)c1 [Example A-235, 2-methyl-4-[1-methyl-3 (or 5)-(3-methylphenyl)-1H-pyrazol-4-yl]pyridine]

IC50 [1, 7]: 99 nM
Structure (SMILES): Fc1ccc(-c2n[nH]cc2-c2ccnc(/C=C/c3ccccc3)c2)cc1 [Example A-244, (E)-4-[3-(4-fluorophenyl)-1H-pyrazol-4-yl]-2-(2-phenylethenyl)pyridine]

IC50 [1, 7]: 2870 nM
Structure (SMILES): Ic1ccc(-c2n[nH]cc2-c2ccncc2)cc1 [Example A-250, 4-[3-(4-iodophenyl)-1H-pyrazol-4-yl]pyridine]

IC50 [1, 5]: 1160 nM
Structure (SMILES): COc1ccccc1N1CCN(c2n[nH]c(-c3ccc(Cl)cc3)c2-c2ccncc2)CC1 [Example A-336, 1-[5-(4-chlorophenyl)-4-(4-pyridinyl)-1H-pyrazol-3-yl]-4-(2-methoxyphenyl)piperazine]

Structure (SMILES): Fc1ccc(-c2n[nH]cc2-c2ccnc(NCCN3CCC(N4CCCCC4)CC3)c2)cc1 [Example A-350, N-(2-[1,4′-bipiperidin]-1′-ylethyl)-4-[3-(4-fluorophenyl)-1H-pyrazol-4-yl]-2-pyridinamine]
inhibition in vivo at 20 mg/kg ([2]; Table 9, dose 20 mg/kg): 65%

IC50 ([1]; Table 9, 10% DMSO, read-out: p38α Kinase Assay IC50): 180 nM and 1250 nM
Structure (SMILES): C=CCn1cc(-c2ccncc2)c(-c2ccc(F)cc2)n1 [Example A-385, 4-[3-(4-fluorophenyl)-1-(2-propenyl)-1H-pyrazol-4-yl]pyridine, monohydrochloride]

IC50 [1, 6]: > 100000 nM
Structure (SMILES): O=C(C(=C1SCS1)c1ccncc1)c1ccc(OC(F)(F)F)cc1 [Example A-395]

IC50 [1, 6]: 59000 nM
Structure (SMILES): O=C(C(=C(SCC1OCCO1)SCC1OCCO1)c1ccncc1)c1ccc(F)cc1 [Example A-449]

IC50 [1, 6]: 12900 nM
Structure (SMILES): Sc1[nH]nc(-c2ccc(Cl)cc2)c1-c1ccncc1 [Example A-455]

IC50 [1, 6]: 30600 nM
Structure (SMILES): O=C(O)CSc1[nH]nc(-c2ccc(Cl)cc2)c1-c1ccncc1 [Example A-461]

IC50 [1, 6]: 4920 nM
Structure (SMILES): O=C(O)C(Cc1cnc[nH]1)Sc1[nH]nc(-c2ccc(Cl)cc2)c1-c1ccncc1 (centres unmarked) [Example A-471]

Structure (SMILES): C[C@@H](NS(=O)(=O)Cc1ccccc1)c1[nH]nc(-c2ccc(F)cc2)c1-c1ccncc1 [Example B-0389]
IC50 [3]: 10 nM
IC50 [4]: 50 nM
inhibition in vivo at 3 mg/kg [2, 8]: 62%

Structure (SMILES): CCOC(=O)N[C@H](C)c1[nH]nc(-c2ccc(F)cc2)c1-c1ccncc1 [Example B-0426]
IC50 [3]: 55 nM
IC50 [4]: 740 nM
inhibition in vivo at 3 mg/kg [2, 8]: 41%

Structure (SMILES): C[C@@H](NS(=O)(=O)c1cccc(Br)c1)c1[nH]nc(-c2ccc(F)cc2)c1-c1ccncc1 [Example B-0455]
inhibition at 1 µM ([4]; U-937, @ 1.0 uM, read-out: U937 Cell % inhib @ conc.): 95%
inhibition in vivo at 3 mg/kg [2, 8]: 36%
